According to patent US20210130401A1, “PEPTIDOMIMETIC INHIBITORS OF THE WDR5-MLL INTERACTION” (THE REGENTS OF THE UNIVERSITY OF MICHIGAN, priority 2017, published 2021):
Like-named read-outs stand apart in the source and are kept apart here. Blank lines part the entries; values can stand above or below the compound they belong to. Starred links: 1 amine or outer side, 2 acyl side, 3 side chain; linkers in the order of their positions; H or OH if unused. Positions of bridges follow the written chain, without caps; N, C: chain ends. Non-standard residues stand in square brackets, D forms with d. Residues, ends and D or L forms follow the SMILES beside them. *: point of attachment. dαMeLys(Me) = CN(CCCC[C@@](C)(N[*:1])C(=O)[*:2])[*:3]; Arg(Nω,Nω'-propylene) = N[C@@H](CCCNC1=NCCCN1)C(=O)O; Orn(2-imidazolinyl) = N[C@@H](CCCNC1=NCCN1)C(=O)O; dαMeDab = C[C@](CCN[*:3])(N[*:1])C(=O)[*:2]; Arg(Me2a) = CN(C)C(=N)NCCC[C@H](N)C(=O)O; dPhg(2-OMe) = COc1ccccc1[C@@H](N)C(=O)O; dPhe(3-F) = N[C@H](Cc1cccc(F)c1)C(=O)O; dPhe(4-F) = N[C@H](Cc1ccc(F)cc1)C(=O)O; dGly(cPent) = N[C@@H](C(=O)O)C1CCCC1; dPhe(2-F) = N[C@H](Cc1ccccc1F)C(=O)O; dCha = N[C@H](CC1CCCCC1)C(=O)O; dChg = N[C@@H](C(=O)O)C1CCCCC1; dPhg = N[C@@H](C(=O)O)c1ccccc1; 2Pyrimidinyl = c1cnc(*)nc1; dOrn = NCCC[C@@H](N)C(=O)O; Isobutyryl = CC(C)C(=O)*; Orn = NCCC[C@H](N)C(=O)O; dDap = NC[C@@H](N)C(=O)O; Nva = CCC[C@H](N)C(=O)O; Abu = CC[C@H](N)C(=O)O

Tests used:
WDR5 = biological target: T1, WDR5 (Homo sapiens, UniProt P61964); assay: fluorescence polarization (FP) based competitive binding assay to WDR5 protein
T1 construct: N-terminal His-tagged WDR5 protein (residues 24-334), named WDR5Δ23; made in house; host or cells: E. coli Rosetta 2 (DE3)
Experimental: The plates were incubated at room temperature on a shaker for 3h, and then the mP values were measured using the Tecan Infinite M-1000 plate reader (Tecan U.S., Research Triangle Park, N.C.).

[1] = system: MOLM-13 leukemia cells carrying MLL-AF9 fusion; assay: cell viability assay (WST-8), MOLM-13; type: cell-based; settings: Homo sapiens, MOLM-13, 96 h
[2] = calculated from IC50 by published equation, read-out: Binding Affinity to WDR5 Ki ± SD
[3] = read-out: Binding Affinity to WDR5 IC50 ± SD
[4] = Table 2A, 4 days treatment, read-out: MOLM-13 IC50

SMILES: CC[C@@H]1NC(=O)[C@H](CCCNC(=N)N)NC(=O)[C@](C)(NC(=O)C(C)C)CCNC(=O)[C@@H](c2cccc(F)c2)NC1=O [Cpd. No. 80, N-((3R,6S,9S,12R)-6-ethyl-3-(3-fluorophenyl)-9-(3-guanidinopropyl)-12-methyl-2,5,8,11-tetraoxo-1,4,7,10-tetraazacyclotetradecan-12-yl)isobutyramide]
IC50 (WDR5): 0.00287 µM
Ki (WDR5): < 0.001 µM
IC50 ([1]; read-out: MOLM-13 IC50 (μM)): 0.42 µM

SMILES: CC[C@@H]1NC(=O)[C@H](CCCNC(=N)N)NC(=O)[C@](C)(NC(=O)C(C)C)CCCCN(C)C(=O)[C@@H](c2ccc(Cl)cc2)NC1=O [Cpd. No. 67, N-((3R,6S,9S,12R)-3-(4-chlorophenyl)-6-ethyl-9-(3-guanidinopropyl)-1,12-dimethyl-2,5,8,11-tetraoxo-1,4,7,10-tetraazacyclohexadecan-12-yl)isobutyramide]
IC50 (WDR5): 0.0015 ± 0.0009 µM
Ki (WDR5): < 0.001 µM

SMILES: CC[C@@H]1NC(=O)[C@H](CCCNC2=NCCN2)NC(=O)[C@](C)(NC(=O)C(C)C)CCNC(=O)[C@@H](c2ccccc2)NC1=O [Cpd. No. 17, N-((3R,6S,9S,12R)-9-(3-((4,5-dihydro-1H-imidazol-2-yl)amino)propyl)-6-ethyl-12-methyl-2,5,8,11-tetraoxo-3-phenyl-1,4,7,10-tetraazacyclotetradecan-12-yl)isobutyramide] (Isobutyryl-[dαMeDab][Orn(2-imidazolinyl)][Abu][dPhg]; lactam 1-C)
IC50 (WDR5): 0.0024 µM
Ki (WDR5): < 0.001 µM
IC50 ([1]; read-out: MOLM-13 IC50 (μM)): 0.088 µM

SMILES: CCC[C@@H]1NC(=O)[C@H](CCCNC(=N)N)NC(=O)[C@](C)(NC(=O)C(C)C)CCNC(=O)[C@@H](c2ccccc2)NC1=O [Cpd. No. 88, N-((3R,6S,9S,12R)-9-(3-guanidinopropyl)-12-methyl-2,5,8,11-tetraoxo-3-phenyl-6-propyl-1,4,7,10-tetraazacyclotetradecan-12-yl)isobutyramide] (Isobutyryl-[dαMeDab]R[Nva][dPhg]; lactam 1-C)
IC50 (WDR5): 0.00238 µM
Ki (WDR5): < 0.001 µM
IC50 ([1]; read-out: MOLM-13 IC50 (μM)): 6.33 µM

Ki (WDR5; [2]): 0.242 ± 0.033 µM
IC50 (WDR5; [3]): 1.19 ± 0.16 µM
SMILES: CC[C@@H]1NC(=O)[C@H](CCCNC(=N)N)NC(=O)[C@H](NC(=O)C(C)C)CNC(=O)[C@@H](c2ccccc2)NC1=O [Cpd. No. 71, N-((3R,6S,9S,12R)-6-ethyl-9-(3-guanidinopropyl)-2,5,8,11-tetraoxo-3-phenyl-1,4,7,10-tetraazacyclotridecan-12-yl)isobutyramide] (Isobutyryl-[dDap]R[Abu][dPhg]; lactam 1-C)

Ki (WDR5; [2]): 0.0603 ± 0.0119 µM
IC50 (WDR5; [3]): 0.298 ± 0.058 µM
SMILES: CC[C@@H]1NC(=O)[C@H](CCCNC(=N)N)NC(=O)[C@H](NC(=O)C(C)C)CCCCNC(=O)[C@@H](c2ccccc2)NC1=O [Cpd. No. 73, N-((3R,6S,9S,12R)-6-ethyl-9-(3-guanidinopropyl)-2,5,8,11-tetraoxo-3-phenyl-1,4,7,10-tetraazacyclohexadecan-12-yl)isobutyramide] (Isobutyryl-[dK]R[Abu][dPhg]; lactam 1-C)

Ki (WDR5; [2]): 0.0329 ± 0.0053 µM
IC50 (WDR5; [3]): 0.164 ± 0.026 µM
SMILES: CC[C@@H]1NC(=O)[C@H](CCCNC(=N)N)NC(=O)[C@H](NC(=O)C(C)C)CCCNC(=O)[C@@H](c2ccccc2)NC1=O [Cpd. No. 72, N-((3R,6S,9S,12R)-6-ethyl-9-(3-guanidinopropyl)-2,5,8,11-tetraoxo-3-phenyl-1,4,7,10-tetraazacyclopentadecan-12-yl)isobutyramide] (Isobutyryl-[dOrn]R[Abu][dPhg]; lactam 1-C)

IC50 [1, 4]: 1.72 µM
SMILES: CC[C@@H]1NC(=O)[C@H](CCCNC(=N)N)NC(=O)[C@](C)(NC(=O)C(C)C)CCNC(=O)[C@@H](C)NC1=O [Cpd. No. 48, N-((3R,6S,9S,12R)-6-ethyl-9-(3-guanidinopropyl)-3,12-dimethyl-2,5,8,11-tetraoxo-1,4,7,10-tetraazacyclotetradecan-12-yl)isobutyramide] (Isobutyryl-[dαMeDab]R[Abu][dA]; lactam 1-C)

SMILES: CC[C@@H]1NC(=O)[C@H](CCCNC(=N)N)NC(=O)[C@](C)(NC(=O)C(C)C)CCNC(=O)[C@@H](c2ccccc2OC)NC1=O [Cpd. No. 99, N-((3R,6S,9S,12R)-6-ethyl-9-(3-guanidinopropyl)-3-(2-methoxyphenyl)-12-methyl-2,5,8,11-tetraoxo-1,4,7,10-tetraazacyclotetradecan-12-yl)isobutyramide] (Isobutyryl-[dαMeDab]R[Abu][dPhg(2-OMe)]; lactam 1-C)
IC50 ([1]; read-out: MOLM-13 IC50 (μM)): 1.6 µM

SMILES: CC[C@@H]1NC(=O)[C@H](CCCNC(=N)N(C)C)NC(=O)[C@](C)(NC(=O)C(C)C)CCNC(=O)[C@@H](CC2CCCCC2)NC1=O [Cpd. No. 36, N-((3R,6S,9S,12R)-3-(cyclohexylmethyl)-9-(3-(3,3-dimethylguanidino)propyl)-6-ethyl-12-methyl-2,5,8,11-tetraoxo-1,4,7,10-tetraazacyclotetradecan-12-yl)isobutyramide] (Isobutyryl-[dαMeDab][Arg(Me2a)][Abu][dCha]; lactam 1-C)
IC50 ([1]; read-out: MOLM-13 IC50 (μM)): > 10 µM

SMILES: CC[C@@H]1NC(=O)[C@H](CCCNC(=N)N)NC(=O)[C@](C)(NC(=O)C(C)C)CCNC(=O)[C@@H](Cc2ccc(F)cc2)NC1=O [Cpd. No. 57, N-((3R,6S,9S,12R)-6-ethyl-3-(4-fluorobenzyl)-9-(3-guanidinopropyl)-12-methyl-2,5,8,11-tetraoxo-1,4,7,10-tetraazacyclotetradecan-12-yl)isobutyramide] (Isobutyryl-[dαMeDab]R[Abu][dPhe(4-F)]; lactam 1-C)
IC50 ([1]; read-out: MOLM-13 IC50 (μM)): 6.51 µM

IC50 [1, 4]: 1.57 µM
SMILES: CC[C@@H]1NC(=O)[C@H](CCCNC(=N)N)NC(=O)[C@](C)(NC(=O)C(C)C)CCNC(=O)[C@@H](Cc2ccccc2)NC1=O [Cpd. No. 54, N-((3R,6S,9S,12R)-3-benzyl-6-ethyl-9-(3-guanidinopropyl)-12-methyl-2,5,8,11-tetraoxo-1,4,7,10-tetraazacyclotetradecan-12-yl)isobutyramide] (Isobutyryl-[dαMeDab]R[Abu][dF]; lactam 1-C)

SMILES: CC[C@@H]1NC(=O)[C@H](CCCNC(=N)N)NC(=O)[C@](C)(NC(=O)C(C)C)CCNC(=O)[C@@H](Cc2ccccc2F)NC1=O [Cpd. No. 55, N-((3R,6S,9S,12R)-6-ethyl-3-(2-fluorobenzyl)-9-(3-guanidinopropyl)-12-methyl-2,5,8,11-tetraoxo-1,4,7,10-tetraazacyclotetradecan-12-yl)isobutyramide] (Isobutyryl-[dαMeDab]R[Abu][dPhe(2-F)]; lactam 1-C)
IC50 ([1]; read-out: MOLM-13 IC50 (μM)): 3.59 µM

SMILES: CC[C@@H]1NC(=O)[C@H](CCCNC2=NCCCN2)NC(=O)[C@](C)(NC(=O)C(C)C)CCNC(=O)[C@@H](CC2CCCCC2)NC1=O [Cpd. No. 40, N-((3R,6S,9S,12R)-3-(cyclohexylmethyl)-6-ethyl-12-methyl-2,5,8,11-tetraoxo-9-(3-((1,4,5,6-tetrahydropyrimidin-2-yl)amino)propyl)-1,4,7,10-tetraazacyclotetradecan-12-yl)isobutyramide] (Isobutyryl-[dαMeDab][Arg(Nω,Nω'-propylene)][Abu][dCha]; lactam 1-C)
IC50 ([1]; read-out: MOLM-13 IC50 (μM)): 0.88 µM

SMILES: CC[C@@H]1NC(=O)[C@H](CCCNc2ncccn2)NC(=O)[C@](C)(NC(=O)C(C)C)CCNC(=O)[C@@H](c2ccccc2)NC1=O [Cpd. No. 21, N-((3R,6S,12R)-6-ethyl-12-methyl-2,5,8,11-tetraoxo-3-phenyl-9-(3-(pyrimidin-2-ylamino)propyl)-1,4,7,10-tetraazacyclotetradecan-12-yl)isobutyramide] (Isobutyryl-[dαMeDab][Orn](2Pyrimidinyl)[Abu][dPhg]; lactam 1-C)
IC50 ([1]; read-out: MOLM-13 IC50 (μM)): > 10 µM

SMILES: CC[C@@H]1NC(=O)[C@H](CCCNC(=N)N)NC(=O)[C@](C)(NC(=O)C(C)C)CCNC(=O)[C@@H](c2ccc(Cl)cc2)NC1=O [Cpd. No. 100, N-((3R,6S,9S,12R)-3-(4-chlorophenyl)-6-ethyl-9-(3-guanidinopropyl)-12-methyl-2,5,8,11-tetraoxo-1,4,7,10-tetraazacyclotetradecan-12-yl)isobutyramide]
IC50 ([1]; read-out: MOLM-13 IC50 (μM)): 2.2 µM

SMILES: CC[C@@H]1NC(=O)[C@H](CCCNC(=N)N)NC(=O)[C@](C)(NC(=O)C(C)C)CCNC(=O)[C@@H](C2CCCCC2)NC1=O [Cpd. No. 51, N-((3R,6S,9S,12R)-3-cyclohexyl-6-ethyl-9-(3-guanidinopropyl)-12-methyl-2,5,8,11-tetraoxo-1,4,7,10-tetraazacyclotetradecan-12-yl)isobutyramide] (Isobutyryl-[dαMeDab]R[Abu][dChg]; lactam 1-C)
IC50 ([1]; read-out: MOLM-13 IC50 (μM)): 0.64 µM

SMILES: CC[C@@H]1NC(=O)[C@H](CCCNC(=N)N)NC(=O)[C@](C)(NC(=O)C(C)C)CCNC(=O)[C@@H](Cc2cccc(F)c2)NC1=O [Cpd. No. 56, N-((3R,6S,9S,12R)-6-ethyl-3-(3-fluorobenzyl)-9-(3-guanidinopropyl)-12-methyl-2,5,8,11-tetraoxo-1,4,7,10-tetraazacyclotetradecan-12-yl)isobutyramide] (Isobutyryl-[dαMeDab]R[Abu][dPhe(3-F)]; lactam 1-C)
IC50 ([1]; read-out: MOLM-13 IC50 (μM)): 1.29 µM

SMILES: CC[C@@H]1NC(=O)[C@H](CCCNC(=N)N)NC(=O)[C@](C)(NC(=O)C(C)C)CCNC(=O)[C@@H](C2CCCC2)NC1=O [Cpd. No. 50, N-((3R,6S,9S,12R)-3-cyclopentyl-6-ethyl-9-(3-guanidinopropyl)-12-methyl-2,5,8,11-tetraoxo-1,4,7,10-tetraazacyclotetradecan-12-yl)isobutyramide] (Isobutyryl-[dαMeDab]R[Abu][dGly(cPent)]; lactam 1-C)
IC50 ([1]; read-out: MOLM-13 IC50 (μM)): 1.19 µM

SMILES: CC[C@@H]1NC(=O)[C@H](CCCNC(=N)N)NC(=O)[C@](C)(NC(=O)C(C)C)CCCCN(C)C(=O)[C@@H](c2ccccc2)NC1=O [Cpd. No. 65, N-((3R,6S,9S,12R)-6-ethyl-9-(3-guanidinopropyl)-1,12-dimethyl-2,5,8,11-tetraoxo-3-phenyl-1,4,7,10-tetraazacyclohexadecan-12-yl)isobutyramide] (Isobutyryl-[dαMeLys(Me)]R[Abu][dPhg]; lactam 1-C)
IC50 (WDR5): 0.0016 ± 0.0003 µM
Ki (WDR5): < 0.001 µM
